Measured values from PMC8949258, “Synthesis, Characterization and Anticancer Efficacy Evaluation of Benzoxanthone Compounds toward Gastric Cancer SGC-7901” (Molecules, 2022).

How the values were obtained:
[1] = system: A549; assay: MTT in vitro cytotoxicity assay, A549; type: cell-based; conditions: Homo sapiens, 48 h
Experimental: (§1) Roswell Park Memorial Institute Medium (RPMI-1640) was used to culture BEL-7402 and SGC-7901 cell lines; and A549, HeLa and LO2 cells were cultured in Dulbecco’s Modified Eagle’s Medium (DMEM) containing 10% fetal bovine serum (FBS). Cell passage experiments were performed with trypsin every 2 days to maintain exponential growth. All cells were cultured until they reached logarithmic growth phase, unless specifically noted.
(§2) The cytotoxicity test was carried out according to a method described in the literature. The cells were seeded into 96-well micro-assay culture plates and grown overnight in a 5% CO2 incubator at 37 °C. Then, the cells were treated with gradient concentrations of the compounds when the cells grew to 60–70%. At 48 h posttreatment, the medium was removed and MTT solution was added. After 4 h, the absorbance at 490 nm was measured with a microplate reader. The IC50 values were calculated by SPSS (Statistical Product and Service Solutions) software.

[2] = system: SGC-7901; assay: MTT in vitro cytotoxicity assay, SGC-7901; type: cell-based; conditions: Homo sapiens, 48 h
Experimental: as §1, §2

[3] = system: HeLa; assay: MTT in vitro cytotoxicity assay, HeLa; type: cell-based; conditions: Homo sapiens, 48 h
Experimental: as §1, §2

[4] = system: LO2; assay: MTT in vitro cytotoxicity assay, normal cell line LO2; type: cell-based; conditions: Homo sapiens, L02, 48 h
Experimental: as §1, §2

[5] = system: BEL-7402; assay: MTT in vitro cytotoxicity assay, BEL-7402; type: cell-based; conditions: Homo sapiens, 48 h
Experimental: as §1, §2

[6] = system: calf thymus DNA (CT-DNA); assay: EB-competitive binding, luminescence titration; conditions: EB-CT-DNA (DNA:EB = 1.25:1), compounds 6.62–50 μM
Experimental: We used ethidium bromide (EB)-competing binding experiments to investigate the binding mode between the compounds and CT-DNA. It is well known that EB combines DNA molecules through a classic intercalative mode. Maintaining the DNA-EB solution concentration (DNA:EB = 1.25:1) and varying the concentrations of compounds (6.62–50 μM), the spectra were recorded after 5 min. The Stern-Volmer constants (Ksv) were calculated using the following Equation (3):F0/F = 1 + Ksv [Q](3) where F0 and F were the fluorescence intensities of the EB-CT DNA solution at 550–700 nm in the absence and presence of the compounds, respectively. [Q] was the concentration of compounds. In plots of F0/F versus [Q], Ksv was given by the ratio of the slope to the intercept.

[7] = system: SGC-7901 cells; assay: ATP measurement; type: cell-based, human; conditions: SGC-7901, IC50 concentrations, 24 h
Experimental: The SGC-7901 cells were cultured in six-well plates and treated with IC50 concentrations of 3b and 3c for 24 h. The cells were lysed for 10 min and centrifuged to obtain the supernatant. The prepared ATP detection working solution was added into the supernatant, 5 min late, the RLU value was measured.

[8] = Partition coefficient by shake flask method; type: physicochemical; conditions: octanol / phosphate buffer (0.129 M NaCl, pH = 7.4)
Experimental: Partition coefficients of compounds in octanol and phosphate buffer (0.129 M NaCl, pH = 7.4) were measured as described by Owellen and coworkers. The concentrations of the compounds in the octanol and phosphate buffer phases were determined three times using a UV/Vis spectrophotometer. The partition coefficients were calculated from the ratio Coct/CPBS, where Coct and CPBS were the concentrations of the compound in the octanol and phosphate buffer, respectively.

[9] = pKa by potentiometric titration; type: physicochemical; conditions: aqueous dimethyl sulfoxide (30% DMSO), 30% dimethyl sulfoxide, 0.15 M KCl
Experimental: The pKa values of the compounds were determined by potentiometric titration using a pH meter (Basic pH Meter PB-10, Sartorius) calibrated with standard buffers of pH 4.01, 6.86 and 9.18 [26]. The compounds were dissolved in aqueous dimethyl sulfoxide (30% dimethyl sulfoxide) at constant ionic strength (0.15 M KCl). The solution was pre-acidified to approximately pH = 2 with 0.24 M HCl, and titrated until pH = 12 with 0.06 M KOH.

[10] = Stability in PBS by UV-Vis spectra; type: physicochemical
Source text: The stability of 3b and 3c in PBS was studied by UV-Vis spectra.

[11] = system: CRT, HSP70 and HMGB1; assay: Immunostaining of CRT, HSP70 and HMGB1 (immunogenic cell death); type: cell-based, human; conditions: SGC-7901, IC50 concentrations, 24 h
Experimental: The SGC-7901 cells were cultured in 12-well plates and treated with IC50 concentrations of 3b and 3c for 24 h. The cells were fixed with 75% alcohol, and then washed and incubated with immunostaining blocker for 1 h. The primary antibody CRT Antibody, HSP70 Antibody and HMGB1 antibody were incubated for 12 h and then the cells were washed three times with PBS. Next, the secondary antibody FITC-labeled Goat Anti-Rabbit IgG was incubated in darkness for 1 h. The cells were washed three times with PBS. Finally, the nuclei were stained with Hoechst and photographed under Micro XLS System (MD company, San Jose, CA, USA).

[12] = system: SGC-7901 cells; assay: Cell cycle arrest by flow cytometry (PI); type: cell-based, human; conditions: SGC-7901, IC50 concentrations, 24 h
Experimental: The cell cycle arrest was carried out using a method described in the literature. Briefly, SGC-7901 cells were treated with IC50 concentrations of compounds for 24 h. Then, the cells were harvested and fixed overnight in 70% ethanol at 4 °C. Next, the permeabilized cells were stained with PI/RNase buffer and the DNA content was determined on a flow cytometer. The results were analyzed by ModFit LT 4.0 (Verity Software House, Topsham, ME, USA).

[13] = system: SGC-7901 cells; assay: Intracellular ROS levels (DCFH-DA); type: cell-based, human; conditions: SGC-7901, IC50 concentrations, 24 h, versus control
Experimental: SGC-7901 cells were seeded in 12-well plate at a density of 1.5 × 10^5 cells per well for 24 h. Then, the medium was replaced with medium containing compounds for 24 h. After treatment, the medium was removed and washed three times with PBS, and the cells were stained with 20 μM DCFH-DA for 30 min in the dark. Finally, the cells were imaged under ImageXpress Mico XLS system (MD company, San Jose, CA, USA).

[14] = system: calf thymus DNA (CT-DNA); assay: Viscosity experiments with CT-DNA; type: binding; conditions: 25 (±0.1) °C, [DNA] = 200 μM, compounds 0 to 90 μM
Experimental: An ubberhold viscometer was used to measure the viscosity of the CT-DNA solution in the absence and presence of compounds, and the temperature was maintained at 25 ± 0.1 °C. The concentration of CT-DNA was 200 μM, and the concentrations of the compounds varied from 0 to 90 μM. The flow times were recorded with a digital stopwatch; each sample was measured three times to get the average time.

[15] = system: SGC-7901 cells; assay: Intracellular Ca2+ levels (Fluo-3AM); type: cell-based, human; conditions: SGC-7901, IC50 concentrations, 24 h, versus control
Experimental: Fluo-3AM, a Ca^2+-sensitive fluorescent probe, was used to detect the level of intracellular Ca^2+. SGC-7901 cells were incubated with IC50 concentrations of the compounds for 24 h at 37 °C. Then, the cells were washed three times with PBS, incubated with Fluo-3AM, and observed under an ImageXpress Micro XLS system (MD company, San Jose, CA, USA). The fluorescence intensity was analyzed under a high content analysis system.

[16] = system: SGC-7901 cells; assay: Intracellular GSH assay; type: cell-based, human; conditions: SGC-7901, IC50 concentrations, 24 h
Experimental: (§3) After incubation with IC50 concentrations of 3b and 3c for 24 h, SGC-7901cells were lysed. The lysate was centrifuged for 15 min to collect the supernatant. The protein concentration was determined using a BCA Protein Assay Kit (Beyotime, Shanghai, China). A lipid peroxidation MDA assay kit (Beyotime, Shanghai, China) was used to detect MDA content, and a GSH and GSSG Assay Kit was used to detect intracellular GSH. SGC-7901 cells were incubated with IC50 concentrations of 3b and 3c for 24 h. Afterwards, the cells were lysed by the freeze-thaw method, and the lysate was centrifuged for 5 min to collect the supernatant. The absorbance was measured at 412 nm with a microplate reader.

[17] = system: SGC-7901 cells; assay: Intracellular MDA assay; type: cell-based, human; conditions: SGC-7901, IC50 concentrations, 24 h
Experimental: as §3

[18] = system: SGC-7901 cells; assay: Cellular uptake (DAPI, fluorescence microscope); type: cell-based, human; conditions: SGC-7901, IC50 concentrations, 24 h
Experimental: Cellular uptake studies were performed according to a method described in the literature. SGC-7901 cells were placed in 24-well microassay culture plates and grown overnight at 37 in a 5% CO2 incubator. The compounds tested were then added to the wells. […] Upon completion of incubation, the wells were washed three times with phosphate buffered saline (PBS). After moving the culture medium, the cells were stained with 2-(4-amidinophenyl)-6-indolecarbamidine dihydrochloride (DAPI) and observed under fluorescence microscope.

[19] = system: P38 MAPK; assay: Western blot of P38 MAPK expression; type: cell-based, human; conditions: SGC-7901, IC50 concentrations, 24 h
Experimental: SGC-7901 cells were seeded in six-well plates for 24 h and incubated with IC50 concentrations of the compounds in the presence of 10% fetal bovine serum (FBS). The cells were then harvested in lysis buffer. After sonication, the samples were centrifuged for 20 min at 13,000× g. The protein concentration of the supernatant was determined by BCA (bicinchoninic acid) assay. Sodium dodecyl sulfate–polyacrylamide gel electrophoresis was carried out with loading equal amounts of proteins per lane. The gels were then transferred to poly (vinylidene difluoride) membranes (Millipore, Billerica, MA, USA) and blocked with 5% nonfat milk in TBST (20 mM Tris-HCl, 150 mM NaCl, 0.05% Tween 20, pH 8.0, Tween: polyoxyethylene monolaurate sorbaitan) buffer for 3 h. The polyvinylidene difluoride membranes were washed four times with TBST (4 × 10 min) and incubated with primary antibody solution at 4 °C overnight. They were then washed four times with TBST for a total of 30 min. The secondary antibodies were then conjugated with horseradish peroxidase (1:5000 dilution) for 70 min at room temperature and washed four times with TBST. The blots were visualized with the Amersham ECL ([…]) and western blotting detection reagents according to the manufacturer’s instructions.

[20] = system: SGC-7901 cells; assay: Mitochondrial membrane potential assay (JC-1); type: cell-based, human; conditions: SGC-7901, IC50 concentrations, 24 h; control 5.85
Experimental: SGC-7901 cells were treated with IC50 concentrations of the compounds in 12-well plates for 24 h and were washed three times with cold PBS. Then, the cells were stained with 1 μg/mL JC-1 for 30 min at 37 °C in the dark. After that, the cells were washed twice with ice-cold PBS to remove residual stain and imaged under the ImageXpress Micro XLS system (MD company, San Jose, CA, USA).

O=C(O)CCc1cccc2oc3ccc4ccccc4c3c(=O)c12 [Compound 3a, 3-(12-oxo-12H-benzo[a]xanthen-11-yl)propanoic acid]
IC50 [1]: > 100 µM | IC50 [2]: > 100 µM | IC50 [3]: > 100 µM | IC50 [4]: > 100 µM | IC50 [5]: > 100 µM

COC(=O)c1ccc2c(ccc3oc4cccc(CCC(=O)O)c4c(=O)c32)c1 [Compound 3b, 3-(3-methoxycarbonyl-12-oxo-12H-benzo[a]xanthen-11-yl)propanoic acid]
Stern-Volmer constant (Ksv) [6]: 2.20 (±0.12) × 10^3 M^−1 | ATP concentration [7]: 3.30 µM | logP [8]: 0.822 | pKa [9]: 7.48 | IC50 [1]: 51.5 ± 13.7 µM | IC50 [2]: 45.6 ± 6.5 µM | stability in PBS ([10]; UV-Vis spectra at 0 and 48 h): stable in PBS | solubility in PBS ([10]; precipitate observed at 48 h): low solubility in PBS | expression of CRT, HSP70 and HMGB1 [11]: increased | Percentage in the cell G0/G1 [12]: 74.6% | Percentage in the cell G2/M [12]: 17.4% | increase in the cell at G0/G1 phase ([12]; versus control): 17.7% | increase of DCF fluorescence intensity [13]: about 60.5% | relative viscosity of CT-DNA with increasing compound concentration [14]: increased | increase of Flu-3-AM fluorescence intensity (intracellular Ca2+) [15]: 1.67 times | GSH concentration [16]: 69.96 µM | MDA [17]: 5.58 nmol/mg | IC50 [3]: 68 ± 9.28 µM | cellular uptake [18]: enter the cytoplasm and accumulate in the nuclei | P38 MAPK expression [19]: significantly upregulated | ratio of red/green fluorescence (R), JC-1 [20]: 3.01 | IC50 [4]: 38.1 ± 0.41 µM | IC50 [5]: > 100 µM
